One assay relates to Escherichia coli. The assay is described as follows: Antimicrobial activity against Escherichia coli. It counts as functional.
For a further assay, the system named is Pseudomonas aeruginosa. Put plainly: Antimicrobial activity against Pseudomonas aeruginosa. The class given is functional, organism-based.

In brackets after ≈: the same amount, converted by molar mass. Where a SMILES comes first, the peptide text is derived from it. Bridges are numbered along the chain shown (N, C = ends). [ ]: non-standard residue; d: D form. The star is where a group is joined. Heptanoyl(6-Me) = CC(C)CCCCC(=O)*; Octanoyl(6-Me) = CCC(C)CCCCC(=O)*; Dab = NCC[C@H](N)C(=O)O; Ava = NCCCCC(=O)O

`CCC(C)CCCCC(=O)N[C@@H](CCN)C(=O)N[C@H](C(=O)N[C@@H](CCN)C(=O)N[C@H]1CCNC(=O)[C@H]([C@@H](C)O)NC(=O)[C@H](CCN)NC(=O)[C@H](CCN)NC(=O)[C@H]([C@@H](C)CC)NC(=O)[C@@H](CC(C)C)NC(=O)[C@H](CCN)NC1=O)[C@@H](C)O` (some centres undefined) yielded an MIC against Escherichia coli of 0.4 µg/mL (≈ 0.342 µM).

Regarding `CCC(C)CCCCC(=O)N[C@@H](CCNCc1c(COP(=O)(O)O)cnc(C)c1O)C(=O)N[C@@H](C(=O)N[C@@H](CCNCc1c(COP(=O)(O)O)cnc(C)c1O)C(=O)N[C@H]1CCNC(=O)[C@@H]([C@@H](C)O)NC(=O)[C@H](CCNCc2c(COP(=O)(O)O)cnc(C)c2O)NC(=O)[C@H](CCNCc2c(COP(=O)(O)O)cnc(C)c2O)NC(=O)[C@H](CC(C)C)NC(=O)[C@@H](Cc2ccccc2)NC(=O)[C@H](CCN)NC1=O)[C@@H](C)O` (some centres undefined) [PYRIDOXAL POLYMYXIN B], the IC50 in the assay on Pseudomonas aeruginosa was 10.7 µg/mL (≈ 5.03 µM).

In the case of `CCC(C)CCCCCOC(=O)[C@H](CCCCN)NC(=O)C(NC(=O)[C@H](CCCCN)NC(=O)[C@H](CCCCN)NC(=O)[C@@H](NC(=O)[C@H](CCCCN)NC(=O)[C@@H](CCCCN)NC(=O)[C@H](CC(C)C)NC(=O)[C@@H](CCCCN)NC(=O)[C@@H](N)CC(C)C)[C@@H](C)O)[C@@H](C)O` (single isomer, unassigned), it took 100 µg/mL (≈ 74.5 µM) to inhibit growth against Escherichia coli (MIC).

Take `CCCC(=O)N[C@@H](CCN)C(=O)N[C@@H](C(=O)N[C@@H](CCN)C(=O)N[C@H]1CCNC(=O)[C@@H]([C@@H](C)O)NC(=O)[C@H](CCN)NC(=O)[C@H](CCN)NC(=O)[C@H](CC(C)C)NC(=O)[C@@H](Cc2ccccc2)NC(=O)[C@H](CCN)NC1=O)[C@@H](C)O` [BUTANOYL FATTY ACYL POLYMYXIN B]: in the assay on Escherichia coli, the MIC was 23 µg/mL (≈ 20.3 µM).

Turning to `CCC(C)CCCCC(=O)N[C@@H](CCNC=O)C(=O)N[C@H](C(=O)N[C@@H](CCNC=O)C(=O)N[C@H]1CCNC(=O)[C@H]([C@@H](C)O)NC(=O)[C@H](CCNC=O)NC(=O)[C@H](CCNC=O)NC(=O)[C@H](CC(C)C)NC(=O)[C@@H](Cc2ccccc2)NC(=O)[C@H](CCN)NC1=O)[C@@H](C)O` (some centres undefined), the 50% inhibitory concentration (IC50) with Pseudomonas aeruginosa was found to be 42 µg/mL (≈ 31.9 µM).

Turning to `CCC(C)CCCCC(=O)N[C@@H](CCNc1ccc([N+](=O)[O-])cc1[N+](=O)[O-])C(=O)N[C@@H](C(=O)N[C@@H](CCNc1ccc([N+](=O)[O-])cc1[N+](=O)[O-])C(=O)N[C@H]1CCNC(=O)[C@@H]([C@@H](C)O)NC(=O)[C@H](CCNc2ccc([N+](=O)[O-])cc2[N+](=O)[O-])NC(=O)[C@H](CCNc2ccc([N+](=O)[O-])cc2[N+](=O)[O-])NC(=O)[C@H](CC(C)C)NC(=O)[C@@H](Cc2ccccc2)NC(=O)[C@H](CCN)NC1=O)[C@@H](C)O` (some centres undefined) [2,4-DINITROPHENYL POLYMYXIN B], inhibition with Pseudomonas aeruginosa was half-maximal at 73 µg/mL (≈ 39.1 µM) (IC50).

`CCC(C)CCCCCOC(=O)[C@H](CCCCN)NC(=O)C(NC(=O)[C@H](CCCCN)NC(=O)[C@H](CCCCN)NC(=O)[C@@H](NC(=O)[C@H](CCCCN)NC(=O)[C@@H](CCCCN)NC(=O)[C@@H](N)CC(C)C)[C@@H](C)O)[C@@H](C)O` (single isomer, unassigned) yielded an MIC with Escherichia coli of 50 µg/mL (≈ 45.4 µM).

`CCC(C)CCCCC(=O)N[C@@H](CCNc1cc(N)c([N+](=O)[O-])cc1[N+](=O)[O-])C(=O)N[C@@H](C(=O)N[C@@H](CCNc1cc(N)c([N+](=O)[O-])cc1[N+](=O)[O-])C(=O)N[C@H]1CCNC(=O)[C@@H]([C@@H](C)O)NC(=O)[C@H](CCNc2cc(N)c([N+](=O)[O-])cc2[N+](=O)[O-])NC(=O)[C@H](CCNc2cc(N)c([N+](=O)[O-])cc2[N+](=O)[O-])NC(=O)[C@H](CC(C)C)NC(=O)[C@@H](Cc2ccccc2)NC(=O)[C@H](CCN)NC1=O)[C@@H](C)O` (some centres undefined) [TETRA 5-AMINO-2,4-DINITROPHENYL POLYMYXIN B] gave an IC50 with Pseudomonas aeruginosa of 68 µg/mL (≈ 35.3 µM).

Compound `CC(C)CCCCC(=O)N[C@@H](CCN)C(=O)N[C@H](C(=O)N[C@@H](CCN)C(=O)N[C@H]1CCNC(=O)[C@H]([C@@H](C)O)NC(=O)[C@H](CCN)NC(=O)[C@H](CCN)NC(=O)[C@H](CC(C)C)NC(=O)[C@@H](CC(C)C)NC(=O)[C@H](CCN)NC1=O)[C@@H](C)O` [COLISTIN B] ({Heptanoyl(6-Me)}-[Dab]T[Dab][Dab][Dab][dL]L[Dab][Dab]T; lactam 4-C) registered an MIC against Escherichia coli of 1.6 µg/mL (≈ 1.38 µM).

Turning to `CCC(C)CCCCC(=O)N[C@@H](CCCCN)C(=O)N[C@H](C(=O)N[C@@H](CCCCN)C(=O)N[C@H]1CCNC(=O)[C@H]([C@@H](C)O)NC(=O)[C@H](CCCCN)NC(=O)[C@H](CCCCN)NC(=O)[C@H](CC(C)C)NC(=O)[C@@H](Cc2ccccc2)NC(=O)[C@H](CCCCN)NC1=O)[C@@H](C)O` (some centres undefined), in the assay with Escherichia coli, the MIC is 0.2 µg/mL (≈ 0.149 µM).

In the case of `CCCCC(=O)N[C@@H](CCN)C(=O)N[C@@H](C(=O)N[C@@H](CCN)C(=O)N[C@H]1CCNC(=O)[C@@H]([C@@H](C)O)NC(=O)[C@H](CCN)NC(=O)[C@H](CCN)NC(=O)[C@H](CC(C)C)NC(=O)[C@@H](Cc2ccccc2)NC(=O)[C@H](CCN)NC1=O)[C@@H](C)O`, in the assay with Escherichia coli, the lowest concentration to inhibit growth (MIC) was 11 µg/mL (≈ 9.59 µM).

Regarding `CCC(C)CCCCC(=O)N[C@@H](CCN)C(=O)N[C@H](C(=O)N[C@@H](CO)C(=O)N[C@H]1CCNC(=O)[C@H]([C@@H](C)O)NC(=O)[C@H](CCN)NC(=O)[C@H](CCN)NC(=O)[C@H](CC(C)C)NC(=O)[C@@H](CC(C)C)NC(=O)[C@H](CCN)NC1=O)[C@@H](C)O` (some centres undefined), it took 0.8 µg/mL (≈ 0.692 µM) to inhibit growth against Escherichia coli (MIC).

Compound `CCC(C)CCCCC(=O)N[C@@H](CCNC(N)=O)C(=O)N[C@H](C(=O)N[C@@H](CCNC(N)=O)C(=O)N[C@H]1CCNC(=O)[C@H]([C@@H](C)O)NC(=O)[C@H](CCNC(N)=O)NC(=O)[C@H](CCNC(N)=O)NC(=O)[C@H](CC(C)C)NC(=O)[C@@H](Cc2ccccc2)NC(=O)[C@H](CCN)NC1=O)[C@@H](C)O` (some centres undefined) gave a half-inhibitory concentration (IC50) in the assay with Pseudomonas aeruginosa of 80 µg/mL (≈ 58.2 µM).

For the compound `CCC(C)CCCCC(=O)N[C@@H](CCNC=O)C(=O)N[C@H](C(=O)N[C@@H](CCNC=O)C(=O)N[C@H]1CCNC(=O)[C@H]([C@@H](C)O)NC(=O)[C@H](CCNC=O)NC(=O)[C@H](CCNC=O)NC(=O)[C@H](CC(C)C)NC(=O)[C@@H](Cc2ccccc2)NC(=O)[C@H](CCNC=O)NC1=O)[C@@H](C)O` (some centres undefined), half-maximal inhibition in the assay on Pseudomonas aeruginosa (IC50) required 60 µg/mL (≈ 44.7 µM).

On to `CCCCCC(=O)N[C@@H](CCN)C(=O)N[C@@H](C(=O)N[C@@H](CCN)C(=O)N[C@H]1CCNC(=O)[C@@H]([C@@H](C)O)NC(=O)[C@H](CCN)NC(=O)[C@H](CCN)NC(=O)[C@H](CC(C)C)NC(=O)[C@@H](Cc2ccccc2)NC(=O)[C@H](CCN)NC1=O)[C@@H](C)O` [HEXANOYL FATTY ACYL POLYMYXIN B], for which the MIC in the assay with Escherichia coli is 0.7 µg/mL (≈ 0.603 µM).

`CCC(C)CCCCC(=O)N[C@@H](CCNC=O)C(=O)N[C@H](C(=O)N[C@@H](CCN)C(=O)N[C@H]1CCNC(=O)[C@H]([C@@H](C)O)NC(=O)[C@H](CCN)NC(=O)[C@H](CCN)NC(=O)[C@H](CC(C)C)NC(=O)[C@@H](Cc2ccccc2)NC(=O)[C@H](CCN)NC1=O)[C@@H](C)O` (some centres undefined) returned a 50% inhibitory concentration (IC50) in the assay with Pseudomonas aeruginosa of 7.6 µg/mL (≈ 6.17 µM).

Consider `CCC(C)CCCCC(=O)N[C@@H](CC=O)C(=O)N[C@H](C(=O)N[C@@H](CC=O)C(=O)N[C@H]1CCNC(=O)[C@H]([C@@H](C)O)NC(=O)[C@H](CC=O)NC(=O)[C@H](CC=O)NC(=O)[C@H](CC(C)C)NC(=O)[C@@H](Cc2ccccc2)NC(=O)[C@H](CC=O)NC1=O)[C@@H](C)O` (some centres undefined) [Desamino Polymyxin B], for which the IC50 in the assay on Pseudomonas aeruginosa came to 70 µg/mL (≈ 58.4 µM).

The compound COLISTIN registered an MIC with Escherichia coli of 0.8 µg/mL.

Regarding `CCC(C)CCCCC(=O)N[C@@H](CCN)C(=O)N[C@H](C(=O)N[C@@H](CCN)C(=O)N[C@H]1CCNC(=O)[C@H]([C@@H](C)O)NC(=O)[C@H](CCN)NC(=O)[C@H](CCN)NC(=O)CCCCNC(=O)[C@H](CCN)NC1=O)[C@@H](C)O` (some centres undefined) ({Octanoyl(6-Me)}-[Dab]T[Dab][Dab][Dab][Ava][Dab][Dab]T; lactam 4-C), in the assay with Escherichia coli, the MIC came to 500 µg/mL (≈ 480 µM).

For the origin of these results see ChEMBL document CHEMBL1156251, “Structure--activity relationships of polymyxin antibiotics” (J Med Chem, 2010).
